Like-named read-outs stand apart in the source and are kept apart here.
Key:
α-glucosidase (α-Glu) [1] = molecular target: T1, α-glucosidase (α-Glu) (Saccharomyces cerevisiae, UniProt P53341); assay: biochemical; conditions: Cα-Glu = 0.10 U/mL, CpNPG = 2.08 mM, pH 6.8, 310 K; read-out: IC50 against α-Glu
T1 construct: purchased Shanghai Yuanye Bio-Technology Co., Ltd
Experimental: The stock solutions (2.0 mM) of AK/MS were prepared by dissolving them in dimethyl sulfoxide, respectively. […] The inhibitory activities of AK/MS against α-Glu were assessed in vitro according to the previous method with a slight modification. Firstly, 50 μL of α-Glu and different doses of inhibitors were mixed for 1 h at 310 K. Fifty microliter of pNPG (5.0 mM) was then put in to activate the reaction. After a 30 min incubation, the Na2CO3 solution (0.2 M, 100 μL) was added to stop the reaction. The absorbance of p-nitrophenol converted from pNPG was monitored at 405 nm on an Infinite® M200 PRO plate reader (Tecan, Durham, NC, USA).

α-glucosidase (α-Glu) [2] = molecular target: T1, α-glucosidase (α-Glu); assay: biochemical; format: biochemical; conditions: for inhibition mode against α-Glu: L-B plots; for Ki: read-out: Ki (inhibition constant, binding to enzyme); for reversibility of inhibition: plots of v vs α-Glu concentration
Experimental: The same procedure in Section 2.2.1 was used to investigate the inhibition mechanisms of AK and MS against α-Glu. Using the Michaelis–Menten equation, inhibitors with various concentrations were utilized to evaluate the kinetic parameters (Km and Vmax). Moreover, the values of two kinetic constants Ki and Kis were determined using the Lineweaver–Burk (L-B) plots. The L-B equation could be expressed in a double reciprocal form for the mixed-type inhibition mechanism analysis:(1) 1/v=Km/Vmax1+I/Ki1/S+1/Vmax1+I/Kis
Km and Vmax denote the Michaelis–Menten constant and the maximum reaction velocity, respectively. [I] and [S] are the concentrations of the inhibitor and substrate, respectively. Ki and Kis represent the inhibition constants to bind with the enzyme and the enzyme–substrate complex, respectively. The secondary plots of the Y-intercept versus [I] are linearly fitted.

α-glucosidase (α-Glu) [3] = molecular target: T1, α-glucosidase (α-Glu); assay: Fluorescence quenching / binding of AK/MS to α-Glu; conditions: for Kq (quenching rate constant): Ksv/τ0; for Kd: read-out: Ka (binding constant) (converted); for fluorescence quenching mechanism: Stern–Volmer analysis; for ΔH^0 / ΔS^0: van't Hoff, 298–310 K; for decrease of synchronous fluorescence intensity of α-Glu: Δλ = 60 nm (Trp); for reduction of three-dimensional fluorescence intensity of Peak 1 of α-Glu: α-Glu 2.0 μM, inhibitor 13.0 μM
Experimental: The fluorescence spectrum of α-Glu was acquired in the spectral region of 300–450 nm on an F97 Pro spectrofluorometer (Lengguang Tech., Shanghai, China) with both excitation and emission slits of 10 nm, when excited at 280 nm. The solution of α-Glu (2.0 μM) was titrated by successively adding different amounts of AK (final concentrations of 4.0, 8.0, 12.0, 16.0, 20.0, 24.0 and 28.0 μM, respectively) or MS (final concentrations of 1.0, 3.0, 5.0, 7.0, 9.0, 11.0 and 13.0 μM, respectively) at 298, 304, and 310 K.
The synchronous fluorescence spectrum was recorded from 270 to 330 nm, when the interval of the emission and excitation wavelength (Δλ = λem − λex) constant was fixed at 15 and 60 nm, respectively.
The three-dimensional fluorescence spectra of α-Glu with or without AK/MS were measured at 298 K. The excitation wavelength range was from 200 to 360 nm, and the emission was collected from 270 to 330 nm, together with an increment of 10 nm. The final concentrations of α-Glu, AK, and MS were 2.0, 13.0, and 13.0 μM, respectively.
All the samples were thoroughly mixed and kept for 6 min before detection, and the inner-filter effect was eliminated to correct the obtained fluorescence data, referring to our previous report.
Thus, the relative mechanism was investigated through the Stern–Volmer equation:(6) F0/F=1+Ksv[Q]=1+kqτ0[Q] where F0 and F are the fluorescence intensities of α-Glu without and with inhibitors, respectively. Ksv, [Q], kq, and τ0 represent the Stern–Volmer quenching constant, the concentration of inhibitor, the biomolecule quenching rate constant, and the average lifetime of protein in the absence of inhibitors, respectively. Specifically, Ksv is determined by the plot of F0/F against [Q], τ0 is about 10^−8 s, and kq is equal to Ksv/τ0.
The binding constants (Ka) of the α-Glu-AK and α-Glu-MS systems were evaluated by the following equation:(7) logF0−F/F=nlogKa−nlog1/[Qt]−(F0−F)[Pt]/F0 where [Pt] and [Qt] represent the total concentrations of α-Glu and the inhibitor, respectively. n is the number of binding sites.
To better reveal the binding mechanism of AK/MS to α-Glu, the critical forces between them were also explored. Typically, the binding forces between proteins and ligands could be estimated by the calculation of the thermodynamic parameters using the following equations:(8) logKa=−ΔH^0/2.303RT+ΔS^0/2.303R (9) ΔG^0=ΔH^0−TΔS^0 where T represents the absolute temperature (in Kelvin), and R is the universal gas constant (8.314 J mol^−1 K^−1). ΔH^0 and ΔS^0 stand for the enthalpy change and entropy change, respectively, and they could be calculated by the slope and the y-axis intercept in the linearly fitted plot between lnKa and 1/T (Figure S4A,B). Then, the free energy change (ΔG^0) is obtained according to Equation (9).

[4] = Solubility and light sensitivity (statement, no method)
α-Glu = conditions: read-out: IC50 against α-Glu, cited from earlier work
[5] = mixed-type, L-B secondary plots

T1 sequence (P53341 whole entry): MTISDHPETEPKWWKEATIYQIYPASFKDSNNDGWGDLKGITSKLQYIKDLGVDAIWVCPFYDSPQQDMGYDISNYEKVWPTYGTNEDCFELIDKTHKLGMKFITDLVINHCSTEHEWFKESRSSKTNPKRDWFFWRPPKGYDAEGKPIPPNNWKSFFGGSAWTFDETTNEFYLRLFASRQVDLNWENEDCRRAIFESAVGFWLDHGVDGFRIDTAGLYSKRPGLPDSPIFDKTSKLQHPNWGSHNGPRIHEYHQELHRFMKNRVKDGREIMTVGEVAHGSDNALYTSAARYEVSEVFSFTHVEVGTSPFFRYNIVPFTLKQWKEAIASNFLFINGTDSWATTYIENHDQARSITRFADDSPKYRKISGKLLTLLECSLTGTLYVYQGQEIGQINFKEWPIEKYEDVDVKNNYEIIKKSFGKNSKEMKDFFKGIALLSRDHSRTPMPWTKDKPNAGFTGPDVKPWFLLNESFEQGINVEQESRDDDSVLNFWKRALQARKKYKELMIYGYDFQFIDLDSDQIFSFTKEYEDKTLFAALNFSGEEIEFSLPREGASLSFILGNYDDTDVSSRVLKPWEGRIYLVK

SMILES | IC50 (α-glucosidase (α-Glu) [1]) | inhibition mode against α-Glu (α-glucosidase (α-Glu) [2]) | Ki (α-glucosidase (α-Glu) [2]; [5]) | reversibility of inhibition (α-glucosidase (α-Glu) [2]) | Ksv (Stern–Volmer quenching constant) (α-glucosidase (α-Glu) [3]; 298 K) | Kq (quenching rate constant) (α-glucosidase (α-Glu) [3]; 298 K) | Kd (α-glucosidase (α-Glu) [3]; 298 K) | Ksv (Stern–Volmer quenching constant) (α-glucosidase (α-Glu) [3]; 304 K) | ΔG^0 (α-glucosidase (α-Glu) [3]; 304 K) | Kq (quenching rate constant) (α-glucosidase (α-Glu) [3]; 304 K) | Kd (α-glucosidase (α-Glu) [3]; 304 K) | Ksv (Stern–Volmer quenching constant) (α-glucosidase (α-Glu) [3]; 310 K) | ΔG^0 (α-glucosidase (α-Glu) [3]; 310 K) | Kq (quenching rate constant) (α-glucosidase (α-Glu) [3]; 310 K) | Kd (α-glucosidase (α-Glu) [3]; 310 K) | fluorescence quenching mechanism (α-glucosidase (α-Glu) [3]) | ΔH^0 (α-glucosidase (α-Glu) [3]) | ΔS^0 (α-glucosidase (α-Glu) [3]) | decrease of synchronous fluorescence intensity of α-Glu (α-glucosidase (α-Glu) [3]) | reduction of three-dimensional fluorescence intensity of Peak 1 of α-Glu (α-glucosidase (α-Glu) [3]; 298 K) | further results
C/C=C/C1=CC2=C(CO1)C(=O)[C@]1(C)OC(=O)[C@H](C(=O)CCCCCCC)[C@H]1C2 [AK, ankaflavin] | 127 ± 2.5 µM | mixed type | 57.8 ± 5.89 µM | reversible inhibitors | 2.23 ± 0.12 10^4 M^−1 | 2.23 ± 0.12 10^12 M^−1s^−1 | 58.1 µM | 2.08 ± 0.07 10^4 M^−1 | -2.488 ± 0.0813 kcal/mol | 2.08 ± 0.07 10^12 M^−1s^−1 | 63.3 µM | 1.91 ± 0.08 10^4 M^−1 | -2.519 ± 0.0526 kcal/mol | 1.91 ± 0.08 10^12 M^−1s^−1 | 69.4 µM | static quenching | -0.841 ± 0.0048 kcal/mol | 22.66 ± 0.84 J mol^−1K^−1 | 59.4% | 24.9% | Vmax of α-Glu (α-glucosidase (α-Glu) [2]; inhibitor 30 μM): 4.02 ± 0.07 µM/min; Vmax of α-Glu (α-glucosidase (α-Glu) [2]; inhibitor 40 μM): 3.86 ± 0.04 µM/min; Kis (inhibition constant, binding to enzyme–substrate complex) (α-glucosidase (α-Glu) [2]; [5]): 3.45 ± 0.06 µM
C/C=C/C1=CC2=C(CO1)C(=O)[C@]1(C)OC(=O)[C@H](C(=O)CCCCC)[C@H]1C2 [MS, monascin] | 302.6 ± 2.5 µM | mixed type | 298 ± 18.1 µM | reversible inhibitors | 2.09 ± 0.02 10^4 M^−1 | 2.09 ± 0.02 10^12 M^−1s^−1 | 70.9 µM | 1.94 ± 0.04 10^4 M^−1 | -2.536 ± 0.0048 kcal/mol | 1.94 ± 0.04 10^12 M^−1s^−1 | 76.3 µM | 1.58 ± 0.03 10^4 M^−1 | -2.562 ± 0.0072 kcal/mol | 1.58 ± 0.03 10^12 M^−1s^−1 | 80.6 µM | static quenching | -1.18 ± 0.0239 kcal/mol | 18.68 ± 3.20 J mol^−1K^−1 | 33.9% | 20.0% | Vmax of α-Glu (α-glucosidase (α-Glu) [2]; inhibitor 100 μM): 1.85 ± 0.04 µM/min; Vmax of α-Glu (α-glucosidase (α-Glu) [2]; inhibitor 200 μM): 1.76 ± 0.08 µM/min; sensitivity to light [4]: sensitive to light; solubility [4]: poor
C[C@H]1O[C@H](O[C@H]2[C@H](O)[C@@H](O)[C@@H](O[C@H]3[C@H](O)[C@@H](O)C(O)O[C@@H]3CO)O[C@@H]2CO)[C@H](O)[C@@H](O)[C@@H]1N[C@H]1C=C(CO)[C@@H](O)[C@H](O)[C@H]1O (stereo partly shown) [acarbose] |  |  |  |  |  |  |  |  |  |  |  |  |  |  |  |  |  |  |  |  | IC50 (α-Glu; previous work): 376 ± 4.4 µM
O=c1cc(-c2ccc(O)cc2)oc2cc(O)cc(O)c12 [apigenin] |  |  |  |  |  |  |  |  |  |  |  |  |  |  |  |  |  |  |  |  | IC50 (α-Glu): 10.5 ± 0.05 µM
